Experimental findings from patent USRE50563E1, “Use of an all-D-pentapeptide chemokine antagonist to reduce opioid dose in a person with pain” (Creative Bio-Peptides, Inc., priority 2017, dated 2025) are described below.

Experiment [1] has as its system cytokines, IL1β, TNFα; chemokines CCL2, CCL3; and chemokines receptors CCR2 and CCR5. The note with it: 0.5 mg/kg, for 7 days, p.o., FIGS. 3A-F. As to the method: To test the hypothesis, we first used behavioral and molecular/cellular approaches to explore chronic pain development and inflammatory reaction in Streptozotocin (STZ) induced diabetic rats. […] CCL2 and CCL3 are two chemokines well known in mediating immune cell trafficking and immune response in the context of neuropathic pain.
(§1) The induction of diabetes was confirmed 72 h after streptozotocin injection by measurement of blood glucose levels using Contour® blood glucose diagnostic kit (Bayer HealthCare, Canada). Body weight and blood glucose levels were measured before and 3 days after streptozotocin injection, once a week for three weeks after diabetes induction. Only rats having blood glucose concentration consistently higher than 300 mg/dl were used for the present study.

Experiment [2] concerns Streptozotocin (STZ) induced diabetic rats. The note with it: oral gavage daily, FIGS. 2A-B. As to the method:
as §1
(§2) Appropriate concentration for each dose was adjusted accordingly.
Cumulative scores were then obtained by summing the four scores for each rat, the minimum score being 0 (no response to any of the four trials) and the maximum possible score being 12 (repeated flicking and licking of paws on each of the four trials).
(§3) Assessment on the effects of RAP103 on mechanical and cold allodynia was performed between 2-4 hours following the drug administration.
(§4) All data were presented as means±SEM. Statistical analysis was performed by two-way ANOVA followed by Bonferroni post-tests. The criterion for statistical significance was P<0.05.

Experiment [3] has the same test system. As to the method:
as §1, §2
Animals were placed in Plexiglas boxes on an elevated metal mesh floor and allowed 60 min for habituation before testing. […] Withdrawal thresholds of both paws were averaged as one single value per animal.
as §3, §4

The subject of experiment [4] is Male, Sprague-Dawley rats. The note with it: for morphine analgesia in an animal model of post-surgical pain (reversal of mechanical allodynia): RAP-103 0.5 mg/kg i.p. plus morphine 5.0 mg/kg s.c. vs morphine alone, 25 min post-surgery, FIG. 4.

Read-outs that look alike come from different tables or passages of the source.

Take all-D-TTNYT [RAP-103]: the “inflammation in the sciatic nerves of STZ rats (inflammatory mediators)” value in experiment [1] is given as “reducing significantly all examined inflammatory mediators”; in experiment [1] (listed as RAP103) it was “significantly inhibited inflammation”. Moreover, the “cold allodynia in rats with neuropathic pain” value in experiment [2] is listed as “reversed cold allodynia”. For the same substance, in experiment [3] (0.5.-0.02 mg/Kg b.w., daily, for 7 days, mechanical and cold allodynia), the “established hypersensitivity in STZ rats” value is given as “complete reversal of established hypersensitivity”. Besides, the “mechanical allodynia in rats with neuropathic pain” value in experiment [3] (STZ diabetic rats, oral gavage daily, FIGS. 1A-B) is given as “reversed mechanical allodynia”. The figures for the “morphine analgesia in an animal model of post-surgical pain (reversal of mechanical allodynia)” value in experiment [4] and in experiment [4] (listed as RAP103) were “statistically significantly greater analgesia” and “potentiates morphine analgesia”, respectively. Further, the “shift to the left of the ED50 for morphine by addition of RAP-103” value in experiment [4] (RAP-103 0.5 mg/kg plus morphine 0.5 to 5.0 mg/kg, % reversal of mechanical allodynia at t=60 min, FIG. 5) is listed as “about 2 fold”.
